Experimental data as given in US20250195521A1 (Revolution Medicines, Inc., priority 2020, published 2025).

Each compound was assayed on NCI-H358 (K-Ras G12C) (assay: CellTiter-Glo cell viability assay, NCI-H358). Details: 5-day treatment; read-out: H358 Cell Viability assay data (K-Ras G12C, IC50).
Assay type: cell-based, human
Protocol: Determination of Cell Viability in RAS Mutant Cancer Cell Lines Protocol: CellTiter-Glo® Cell Viability Assay
Note—The following protocol describes a procedure for monitoring cell viability of K-Ras mutant cancer cell lines in response to a compound of the invention. Other RAS isoforms may be employed, though the number of cells to be seeded will vary based on cell line used.
Test compounds (132.5 nL) were directly dispensed into the assay plates containing cells. […] On day 5, assay plates and their contents were equilibrated to room temperature for approximately 30 minutes. […] Luminescence was measured using the PerkinElmer Enspire. Data were normalized by the following: (Sample signal/Avg. DMSO)*100. The data were fit using a four-parameter logistic fit.

IC50	SMILES
< 0.01 µM	C=CC(=O)Nc1ccc(C(=O)N(C)[C@H](C(=O)N[C@H]2Cc3cc(O)cc(c3)-c3ccc4c(c3)c(c(-c3cccnc3[C@H](C)OC)n4CC)CC(C)(C)COC(=O)[C@@H]3CCCN(N3)C2=O)C(C)C)cn1 [Compound A336]

Same assay, conditions: Homo sapiens, NCI-H358, 120 h, 5-day treatment; read-out: H358 Cell Viability assay data (K-Ras G12C, IC50)

IC50	SMILES
> 10 µM	C=CC(=O)N1CC[C@H](C(=O)N(C)[C@H](C(=O)N(C)[C@H]2Cc3cc(O)cc(c3)-c3ccc4c(c3)c(c(-c3cccnc3COC)n4CC)CC(C)(C)COC(=O)[C@@H]3CCCN(N3)C2=O)C(C)C)C1 [Compound A230]
> 10 µM	C=CC(=O)N1CC[C@H](C(=O)N(C)[C@H](C(=O)N[C@H]2C[C@H]3CN(CCO3)c3ccc4c(c3)c(c(-c3cccnc3COC)n4CC)CC(C)(C)COC(=O)[C@@H]3CCCN(N3)C2=O)C(C)C)C1 [Compound A240]
> 10 µM	C=CC(=O)N1CC[C@H](C(=O)N(C)[C@H](C(=O)N[C@@H]2C(=O)N3CCC[C@H](N3)C(=O)OCC(C)(C)Cc3c(-c4cncnc4)n(CC)c4ccc(cc34)-c3cccc(c3)[C@H]2O)C(C)C)C1 [Compound A272]
> 10 µM	C=CC(=O)N1CC[C@H](C(=O)N(C)[C@H](C(=O)N[C@@H]2C(=O)N3CCC[C@H](N3)C(=O)OCC(C)(C)Cc3c(-c4cncnc4)n(CC)c4ccc(cc34)-c3cccc(c3)[C@H]2OC)C(C)C)C1 [Compound A273]
< 0.01 µM	C=CC(=O)N1CC[C@H](C(=O)N(C)[C@H](C(=O)N[C@H]2Cc3cc(O)cc(c3)-c3ccc4c(c3)c(c(-c3cccnc3[C@@H]3CCCO3)n4CC)CC(C)(C)COC(=O)[C@@H]3CCCN(N3)C2=O)C(C)C)C1 [Compound A281]
> 10 µM	C=CC(=O)N1CC[C@H](C(=O)N(C)[C@H](C(=O)N[C@H]2Cc3nc(cs3)-c3ccc4c(c3)c(c(-c3cccnc3[C@H](C)OC)n4CC)CC(C)(C)CN(C)C[C@@H]3CCCN(N3)C2=O)C(C)C)C1 [Compound A287]
> 10 µM	CO[C@@H](C)c1ncccc1-c1nc2ccc3cn2c1CC(C)(C)COC(=O)[C@@H]1CCCN(N1)C(=O)[C@@H](NC(=O)[C@H](C(C)C)N(C)C(=O)[C@H]1CCN(C(=O)C#CC(C)(C)N(C)C)C1)Cc1cccc-3c1 [Compound A311]
0.1 to 1 µM	C=CC(=O)N1CC[C@H](C(=O)N(C)[C@H](C(=O)N[C@H]2Cc3nc(cs3)-c3ccc4c(n3)c(c(-c3cccnc3[C@H](C)OC)n4CC)CC(C)(C)COC(=O)[C@@H]3CCCN(N3)C2=O)C(C)C)C1 [Compound A347, (2S)—N-[(7S,13S)-21-ethyl-20-{2-[(1S)-1-methoxyethyl]pyridin-3-yl}-17,17-dimethyl-8,14-dioxo-15-oxa-4-thia-9,21,25,27,28-pentaazapentacyclo[17.5.2.1^{2,5}0.1^{9,13}0.0^{22,26}]octacosa-1 (25),2,5 (28), 19,22 (26),23-hexaen-7-yl]-3-methyl-2-{N-methyl-1-[(3S)-1-(prop-2-enoyl)pyrrolidin-3-yl]formamido}butanamide]
< 0.01 µM	CCn1c(-c2cccnc2[C@H](C)OC)c2c3cc(ccc31)-c1csc(n1)C[C@H](NC(=O)[C@H](C(C)C)N(C)C(=O)N1CC(N(C)C(=O)C#CC(C)(C)N3CCC3)C1)C(=O)N1CCC[C@H](N1)C(=O)OCC(C)(C)C2 [Compound A379]

Further lines, the compound ahead of its results:

SMILES	IC50
CCn1c(-c2ccccc2CN(C)C)c2c3cc(ccc31)-c1cc(O)cc(c1)C[C@H](NC(=O)[C@H](C(C)C)N(C)Cc1ccc(NC(=O)/C=C/CN(C)C)cn1)C(=O)N1CCC[C@H](N1)C(=O)OCC(C)(C)C2 [Compound A213]	> 10 µM
CCn1c(-c2ccccc2CCOC)c2c3cc(ccc31)-c1cc(O)cc(c1)C[C@H](NC(=O)[C@H](C(C)C)N(C)C(=O)c1ccc(NC(=O)/C=C/CN(C)C)nc1)C(=O)N1CCC[C@H](N1)C(=O)OCC(C)(C)C2 [Compound A218]	> 10 µM
CCn1c(-c2ccccc2CCOC)c2c3cc(ccc31)-c1cc(O)cc(c1)C[C@H](NC(=O)[C@H](C(C)C)N(C)C(=O)c1ccc(NC(=O)/C=C/CN(C)C)cn1)C(=O)N1CCC[C@H](N1)C(=O)OCC(C)(C)C2 [Compound A224]	> 10 µM
C=CC(=O)N1CC[C@H](C(=O)Nc2ccccc2C(=O)N[C@H]2Cc3cc(O)cc(c3)-c3ccc4c(c3)c(c(-c3cnccc3COC)n4CC)CC(C)(C)COC(=O)[C@@H]3CCCN(N3)C2=O)C1 [Compound A229]	> 10 µM
C=CC(=O)N1CC[C@H](C(=O)N(C)[C@H](C(=O)N[C@H]2Cc3cc(OC4O[C@H](CO)[C@@H](O)[C@H](O)[C@H]4O)cc(c3)-c3ccc4c(c3)c(c(-c3cccnc3COC)n4CC)CC(C)(C)COC(=O)[C@@H]3CCCN(N3)C2=O)C(C)C)C1 (stereo partly drawn) [Compound A234]	> 10 µM
C=CC(=O)N1CC[C@H](C(=O)N(C)[C@H](C(=O)N[C@H]2CN(C)C(=O)Cc3ccc4c(c3)c(c(-c3cccnc3COC)n4CC)CC(C)(C)COC(=O)[C@@H]3CCCN(N3)C2=O)C(C)C)C1 [Compound A239]	> 10 µM
C=CC(=O)N1CC[C@H](C(=O)N(C)[C@H](C(=O)N[C@H]2Cc3cc(O)cc(c3)-c3ccc4nc(-c5cccnc5[C@H](C)OC)n(c4c3)CC(C)(C)COC(=O)[C@@H]3CCCN(N3)C2=O)C(C)C)C1 [Compound A242]	> 10 µM
C=CC(=O)N1CC[C@H](C(=O)N(C)[C@H](C(=O)N[C@H]2Cc3cc(O)cc(c3)-c3ccc4nc(-c5cccnc5COC)c(n4c3)CC(C)(C)COC(=O)[C@@H]3CCCN(N3)C2=O)C(C)C)C1 [Compound A243]	> 10 µM
CCn1c(-c2cccnc2[C@H](C)OC)c2c3cc(ccc31)-c1cc(O)cc(c1)C[C@H](NC(=O)[C@H](C(C)C)N(C)C(=O)[C@H]1CCN(C(=O)C#C[C@@H]3CCCN3C)C1)C(=O)N1CCC[C@H](N1)C(=O)OCC(C)(C)C2 [Compound A247]	< 0.01 µM
C=CC(=O)N1CC[C@H](C(=O)N(C)[C@H](C(=O)N[C@H]2CC3=NN=C(S3)c3ccc4c(c3)c(c(-c3cccnc3[C@H](C)OC)n4CC)CC(C)(C)COC(=O)[C@@H]3CCCN(N3)C2=O)C(C)C)C1 [Compound A248]	> 10 µM
C=CC(=O)Nc1ccc(C(=O)N(C)[C@H](C(=O)N[C@H]2Cc3cc(O)cc(c3)-c3ccc4c(c3)c(c(-c3cccnc3[C@H](C)OC)n4CC)CC(C)(C)COC(=O)[C@@H]3CCCN(N3)C2=O)C(C)C)cn1 [Compound A250]	< 0.01 µM
CCn1c(-c2cccnc2[C@H](C)OC)c2c3cc(ccc31)-c1cc(O)cc(c1)C[C@H](NC(=O)C1CCCC1C(F)F)C(=O)N1CCC[C@H](N1)C(=O)OCC(C)(C)C2 (stereo partly drawn) [Compound A254]	0.1 to 1 µM
C=CC(=O)N1CC[C@H](C(=O)N(C)[C@H](C(=O)N[C@H]2Cc3ncc(n3C)-c3ccc4c(c3)c(c(-c3cccnc3[C@H](C)OC)n4CC)CC(C)(C)COC(=O)[C@@H]3CCCN(N3)C2=O)C(C)C)C1 [Compound A276]	> 10 µM
C=CC(=O)N1CC[C@H](C(=O)N(C)[C@H](C(=O)N[C@H]2Cc3nc(ns3)-c3ccc4c(c3)c(c(-c3cncnc3)n4CC)CC(C)(C)COC(=O)[C@@H]3CCCN(N3)C2=O)C(C)C)C1 [Compound A285]	> 10 µM
C=CC(=O)N1CC[C@H](C(=O)N(C)[C@H](C(=O)N[C@H]2Cc3nc(cs3)-c3ccc4c(c3)c(c(-c3cccnc3[C@H](C)OC)n4CC)CC(C)(C)CCC[C@@H]3CCCN(N3)C2=O)C(C)C)C1 [Compound A288]	> 10 µM
CCn1c(-c2cccnc2[C@H](C)OC)c2c3cc(ccc31)-c1csc(n1)C[C@H](NC(=O)C1(F)COC1)C(=O)N1CCC[C@H](N1)C(=O)OCC(C)(C)C2 [Compound A320]	0.01 to 0.1 µM

Same assay, conditions: Homo sapiens, NCI-H358, 120 h, read-out: H358 Cell Viability assay data (K-Ras G12C, IC50, uM), 5-day treatment

SMILES	IC50
CCn1c(-c2cccnc2[C@H](C)OC)c2c3cc(ccc31)-c1csc(n1)C[C@H](NC(=O)[C@H](C(C)C)N(C)C(=O)N1CC3CC(C1)N3C)C(=O)N1CCC[C@H](N1)C(=O)OCC(C)(C)C2 [Compound A284]	0.1 to 1 µM
